Measured values from EP0306649A1, “3,5-Dihydroxycarboxylic acids and their derivatives, processes for their preparation, their use as medicaments, pharmaceutic preparations and intermediate products” (HOECHST AKTIENGESELLSCHAFT, priority 1987, dated 1989).
Where two headings read alike, the source gives them in different places.

Tests used:
[1] = rat; cited from earlier work
[2] = human trial; cited from earlier work
Cholesterin-Biosynthese = test: Inhibition of cholesterol biosynthesis in cell culture by 14C precursor incorporation into cholesterol; format: cell-based; conditions: HEP G2-Zellen monolayers in lipoprotein-free medium; 1 h preincubation, then 3 h with 14C-Natriumacetat; potency relative to Mevinolin tested in the same way
Description: 2) Prüfung auf Cholesterin-Biosynthese-Hemmung in Zellkulturen durch ¹⁴-Präkursoreinbau in Cholesterin.
Monolayers von HEP G2-Zellen in lipoproteinfreiem Nährmedium wurden mit entsprechenden Konzentrationen der Prüfsubstanzen 1 Stunde vorinkubiert; nach Zugabe des ¹⁴C-markierten Präkursors ¹⁴C-Natriumacetat wurde die Inkubation für 3 Stunden fortgesetzt. Danach wurde ein Teil der Zellen alkalisch verseift bei vorheriger Zugabe eines internen Standards von ³H-Cholesterin. Die Lipide der verseiften Zellen wurden mit Chloroform-Methanol extrahiert. Dieses Lipidgemisch wurde nach Zusatz von Träger-Cholesterin präparativ dünnschichtchromatographisch getrennt, die Cholesterin-Bande nach dem Sichtbarmachen mit Jod-Dämpfen isoliert und die aus dem ¹⁴C-Präkursor gebildete Menge ¹⁴C-Cholesterins szintigraphisch bestimmt. In einem aliquoten Teil der Zellen wurde Zellprotein bestimmt, sodaß die in der Zeiteinheit/mg Zellprotein aus ¹⁴C-Präkursor gebildete Menge ¹⁴C-Cholesterins berechnet werden kann. Zum Vergleich für die Hemmwirkung eines zugesetzten Prüfpräparates diente die Lösungsmittelkontrolle, sodaß direkt die Hemmung der Cholesterin-Biosynthese bei einer bestimmten molaren Konzentration des Prüfpräparates im Medium angegeben werden kann. […]

| Compound | cholesterinsenkende Wirkung [1] | cholesterinsenkende Wirkung [2] | relative Weinstärke zu Mevinolin (Cholesterin-Biosynthese) |
| --- | --- | --- | --- |
| CC(O)(CC(=O)O)CC(=O)O [3-Hydroxy-3-methyl-glutarsäure] | signifikante cholesterinsenkende Wirkung | signifikante cholesterinsenkende Wirkung |  |
| CC(C)C(C=CC(O)CC(O)CC(=O)[O-])=C(c1ccc(F)cc1)c1ccc(F)cc1.[Na+] (stereo not shown) [Beispiel 11a, 9,9-Di-(4-fluorphenyl)-3,5-dihydroxy-8-isopropyl-6,8-nonadiensäure Natriumsalz] |  |  | 100% |
| CC(C)C(CCC(O)CC(O)CC(=O)[O-])=C(c1ccc(F)cc1)c1ccc(F)cc1.[Na+] (stereo not shown) [Beispiel 11n, 3,5-Dihydroxy-9,9-di-(4-flurophenyl)-8-isopropyl-8-nonensäure-Natriumsalz] |  |  | 30% |
